In patent publication US8257928B2, “Methods for predicting and treating tumors resistant to drug, immunotherapy and radiation” (The Regents of the University of California, priority 2008, dated 2012):

Tested on: HMT3522 T4-2 cells
Experiment: Affymetrix U133A 2.0 gene expression profiling of T4-2 N-CoR2 cells vs T4-2 vector cells grown on rBM;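 further: total RNA converted to biotin-labelled cRNA, hybridized to arrays and confocally scanned, probe set intensities computed by GC-RMA, genes kept if flagged present in at least 2 of 8 samples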
Assay type: cell-based, human
Settings: T4-2 N-CoR2 cells on rBM, 6 days
Description: HMT3522 T4-2 cells were derived from an epidermal growth factor (EGF)-dependent breast epithelial HMT3522 S-1 cells and an EGF-independent HMT3522 S-2 cells that spontaneously became malignant when injected into nude mice. HMT3522 T4-2 cells were propagated as monolayers on type I collagen-coated plastic surface in chemically defined medium consisting of DMEM:F12 medium (Invitrogen GIBCO), containing 250 ng/ml insulin (Boehringer Mannheim), 10 μg/ml transferrin (Sigma, St. Louis, Mo.), 2.6 ng/ml sodium splenetic (Collaborative Research), 10^−10 M estradiol (Sigma), 1.4×10^−6 M hydrocortisone (Collaborative Research), and 5 μg/ml prolactin (Sigma), as described in J. Cell Biol. 137:231-245 (1997).
Amphotropic retrovirus was produced in modified 293 cells or in Phoenix ampho cells (provided by Professor G. Nolan, Stanford Medical Center) with packaging vectors pCgp and pVSVG to boost viral titer. […] Sorted cells were expanded again in the presence of tetracycline.
To increase the yield of RNA for transcriptional profiling experiments, we grew 2×10^5 cells on top of rBM in a 60-mm tissue culture dish. As described, cells grown on top of rBM formed 3D cellular aggregates similar to those embedded in rBM. […] The cultures were maintained for 6 days before the collection of RNA samples.
Total RNA was extracted from monolayer culture or 3D culture by a modified TR1 reagent procedure as described (Biotechniques 19:942-945 (1995)) and purified using an RNeasy Mini Kit (Qiagen). Gene expression analysis was performed on an Affymetrix Human Genome U133A 2.0 GeneChip platform containing 22,283 probes according to the manufacturer's protocol (Affymetrix). Twenty micrograms of total RNA from each sample was processed to produce biotinylated cRNA targets. After hybridization, washing and staining arrays were scanned using a confocal scanner (Affymetrix). The hybridization intensity data was processed using the GeneChip Operating software (Affymetrix). Affymetrix .cel files (probe intensity files) were processed with ArrayAssist Lite (v3.4, Stratagene). The files were imported and processed with the GC-RMA algorithm to yield probe set intensities and additionally, Affymetrix Preset, Absent, Marginal flags were computed. These values were exported in .chp files, which were subsequently imported into the Partek Genomics Suite software (v6.2, Partek). The genes were filtered based on the Affymetrix P/A/M flags to retain only those genes that were present in at least 2 of the 8 samples.

N-CoR2
MEAN INTENSITY (N) 33304_at ISG20: 482.12
MEAN INTENSITY (N) 38037_at HBEGF: 361.24
MEAN INTENSITY (N) 38043_at FAM3A: 68.61
MEAN INTENSITY (N) 53991_at DENND2A: 20.60
MEAN INTENSITY (N) 200696_s_at GSN: 914.82
MEAN INTENSITY (N) 200821_at LAMP2: 347.91
MEAN INTENSITY (N) 200914_x_at KTN1: 343.43
MEAN INTENSITY (N) 201007_at HADHB: 7136.54
MEAN INTENSITY (N) 201132_at HNRPH2: 143.04
MEAN INTENSITY (N) 201215_at PLS3: 411.68
MEAN INTENSITY (N) 201472_at VBP1: 161.81
MEAN INTENSITY (N) 201540_at FHL1: 1059.88
MEAN INTENSITY (N) 201661_s_at ACSL3: 24.61
MEAN INTENSITY (N) 201864_at GDI1: 358.31
MEAN INTENSITY (N) 201865_x_at NR3C1: 332.55
MEAN INTENSITY (N) 201887_at IL13RA1: 93.97
MEAN INTENSITY (N) 201917_s_at SLC25A36: 28.72
MEAN INTENSITY (N) 201996_s_at SPEN: 72.47
MEAN INTENSITY (N) 202169_s_at AASDIIPPT: 25.30
MEAN INTENSITY (N) 202277_at SPTLC1: 110.99
MEAN INTENSITY (N) 202351_at ITGAV: 510.51
MEAN INTENSITY (N) 202371_at TCEAL4: 269.43
MEAN INTENSITY (N) 202376_at SERPINA3: 196.67
MEAN INTENSITY (N) 202378_s_at LEPROT: 228.55
MEAN INTENSITY (N) 202411_at IFI27: 155.11
MEAN INTENSITY (N) 202439_s_at IDS: 270.52
MEAN INTENSITY (N) 202602_s_at HTATSF1: 79.70
MEAN INTENSITY (N) 202829_s_at SYBL1: 38.13
MEAN INTENSITY (N) 202923_s_at GCLC: 167.13
MEAN INTENSITY (N) 203042_at LAMP2: 638.66
MEAN INTENSITY (N) 203156_at AKAP11: 21.24
MEAN INTENSITY (N) 203186_s_at S100A4: 227.62
MEAN INTENSITY (N) 203303_at DYNLT3: 44.35
MEAN INTENSITY (N) 203453_at SCNN1A: 142.26
MEAN INTENSITY (N) 203780_at EVA1: 133.29
MEAN INTENSITY (N) 203821_at HBEGF: 977.38
MEAN INTENSITY (N) 203917_at CXADR: 71.25
MEAN INTENSITY (N) 204020_at PURA: 200.32
MEAN INTENSITY (N) 204097_s_at RBMX2: 21.99
MEAN INTENSITY (N) 204343_at ABCA3: 38.38
MEAN INTENSITY (N) 204351_at S100P: 180.28
MEAN INTENSITY (N) 204533_at CXCL10: 24.04
MEAN INTENSITY (N) 204584_at L1CAM: 327.45
MEAN INTENSITY (N) 204602_at DKK1: 259.47
MEAN INTENSITY (N) 204881_s_at UGCG: 120.86
MEAN INTENSITY (N) 204976_s_at AMMECR1: 36.28
MEAN INTENSITY (N) 204981_at SLC22A18: 205.14
MEAN INTENSITY (N) 205097_at SLC26A2: 85.76
MEAN INTENSITY (N) 205128_x_at PTGS1: 125.00
MEAN INTENSITY (N) 205220_at GPR109B: 645.95
MEAN INTENSITY (N) 205315_s_at SNTB2: 87.78
MEAN INTENSITY (N) 205363_at BBOX1: 120.76
MEAN INTENSITY (N) 205428_s_at CALB2: 143.13
MEAN INTENSITY (N) 205569_at LAMP3: 64.51
MEAN INTENSITY (N) 205595_at DSG3: 177.64
MEAN INTENSITY (N) 205623_at ALDH3A1: 77.90
MEAN INTENSITY (N) 205709_s_at CDS1: 42.93
MEAN INTENSITY (N) 205767_at EREG: 183.71
MEAN INTENSITY (N) 205809_s_at WASL: 77.44
MEAN INTENSITY (N) 205900_at KRT1: 95.82
MEAN INTENSITY (N) 206295_at IL18: 188.27
MEAN INTENSITY (N) 206342_x_at IDS: 267.58
MEAN INTENSITY (N) 206645_s_at NR0B1: 107.59
MEAN INTENSITY (N) 207719_x_at CEP170: 21.69
MEAN INTENSITY (N) 207941_s_at RNPC2: 78.71
MEAN INTENSITY (N) 208241_at NRG1: 18.19
MEAN INTENSITY (N) 209022_at STAG2: 24.13
MEAN INTENSITY (N) 209028_s_at ABI1: 109.59
MEAN INTENSITY (N) 209194_at CETN2: 187.44
MEAN INTENSITY (N) 209289_at NFIB: 64.90
MEAN INTENSITY (N) 209726_at CA11: 105.08
MEAN INTENSITY (N) 209792_s_at KLK10: 505.96
MEAN INTENSITY (N) 210367_s_at PTGES: 246.35
MEAN INTENSITY (N) 210387_at HIST1H2BG: 579.17
MEAN INTENSITY (N) 211122_s_at CXCL11: 12.87
MEAN INTENSITY (N) 211343_s_at COL13A1: 88.75
MEAN INTENSITY (N) 211612_s_at IL13RA1: 104.96
MEAN INTENSITY (N) 211671_s_at NR3C1: 263.10
MEAN INTENSITY (N) 212007_at UBXD2: 117.00
MEAN INTENSITY (N) 212221_x_at IDS: 571.11
MEAN INTENSITY (N) 212223_at IDS: 186.65
MEAN INTENSITY (N) 212414_s_at SEPT6: 68.28
MEAN INTENSITY (N) 212415_at SEPT6: 11.03
MEAN INTENSITY (N) 212510_at GPD1L: 22.53
MEAN INTENSITY (N) 212531_at LCN2: 420.45
MEAN INTENSITY (N) 212605_s_at: 41.36
MEAN INTENSITY (N) 212616_at CHD9: 17.34
MEAN INTENSITY (N) 212622_at TMEM41B: 26.02
MEAN INTENSITY (N) 212640_at PTPLB: 459.88
MEAN INTENSITY (N) 213016_at: 34.12
MEAN INTENSITY (N) 213083_at SLC35D2: 234.84
MEAN INTENSITY (N) 213135_at TIAM1: 24.42
MEAN INTENSITY (N) 213229_at DICER1: 464.53
MEAN INTENSITY (N) 213294_at: 18.29
MEAN INTENSITY (N) 213593_s_at TRA2A: 34.25
MEAN INTENSITY (N) 213729_at PRPF40A: 15.54
MEAN INTENSITY (N) 214022_s_at IFITM1: 4135.74
MEAN INTENSITY (N) 214112_s_at CXorf40A: 479.14
MEAN INTENSITY (N) 214718_at GATAD1: 33.09
MEAN INTENSITY (N) 214722_at NOTCH2NL: 159.38
MEAN INTENSITY (N) 215206_at EXT1: 106.70
MEAN INTENSITY (N) 215245_x_at FMR1: 78.43
MEAN INTENSITY (N) 215813_s_at PTGS1: 76.88
MEAN INTENSITY (N) 216095_x_at MTMR1: 318.26
MEAN INTENSITY (N) 216942_s_at CD58: 34.65
MEAN INTENSITY (N) 217388_s_at KYNU: 634.02
MEAN INTENSITY (N) 217813_s_at SPIN: 59.32
MEAN INTENSITY (N) 217947_at CMTM6: 498.31
MEAN INTENSITY (N) 217948_at: 706.40
MEAN INTENSITY (N) 217975_at WBP5: 441.28
MEAN INTENSITY (N) 218053_at PRPF40A: 132.43
MEAN INTENSITY (N) 218085_at CHMP5: 84.03
MEAN INTENSITY (N) 218086_at NPDC1: 330.55
MEAN INTENSITY (N) 218163_at MCTS1: 521.74
MEAN INTENSITY (N) 218237_s_at SLC38A1: 608.07
MEAN INTENSITY (N) 218668_s_at RAP2C: 54.25
MEAN INTENSITY (N) 218986_s_at FLJ20035: 29.34
MEAN INTENSITY (N) 219001_s_at WDR32: 26.25
MEAN INTENSITY (N) 219010_at C1orf106: 585.64
MEAN INTENSITY (N) 219045_at RHOF: 540.25
MEAN INTENSITY (N) 219351_at TRAPPC2: 71.62
MEAN INTENSITY (N) 219356_s_at CHMP5: 242.88
MEAN INTENSITY (N) 219956_at GALNT6: 147.85
MEAN INTENSITY (N) 219995_s_at FLJ13841: 795.33
MEAN INTENSITY (N) 221553_at RP11-217II1.1: 90.64
MEAN INTENSITY (N) 221581_s_at LAT2: 163.24
MEAN INTENSITY (N) 221766_s_at FAM46A: 25.10
MEAN INTENSITY (N) 221829_s_at TNPO1: 213.54
MEAN INTENSITY (N) 221841_s_at KLF4: 264.55
MEAN INTENSITY (N) 221844_x_at: 96.74
MEAN INTENSITY (N) 222242_s_at KLK5: 26.38
MEAN INTENSITY (N) 222266_at C19orf2: 25.69
